Source: US20210177828A1, “TAM FAMILY KINASE /AND CSF1R KINASE INHIBITOR AND USE THEREOF” (Nanjing Transthera Biosciences Co., Ltd., priority 2018, published 2021)
Where two headings read alike, the source gives them in different places.

Tests used:
H1299 cell pAxl = target: T1, H1299 cell pAxl (Homo sapiens, UniProt P30530); test: Inhibitory activity on cell pAxl, H1299 cells, hGAS6 stimulation, Western Blot; format: cell-based; conditions: hGAS6 200 ng/mL
T1 construct: endogenous in cells; host or cells: H1299
T1 sequence (P30530 26-894): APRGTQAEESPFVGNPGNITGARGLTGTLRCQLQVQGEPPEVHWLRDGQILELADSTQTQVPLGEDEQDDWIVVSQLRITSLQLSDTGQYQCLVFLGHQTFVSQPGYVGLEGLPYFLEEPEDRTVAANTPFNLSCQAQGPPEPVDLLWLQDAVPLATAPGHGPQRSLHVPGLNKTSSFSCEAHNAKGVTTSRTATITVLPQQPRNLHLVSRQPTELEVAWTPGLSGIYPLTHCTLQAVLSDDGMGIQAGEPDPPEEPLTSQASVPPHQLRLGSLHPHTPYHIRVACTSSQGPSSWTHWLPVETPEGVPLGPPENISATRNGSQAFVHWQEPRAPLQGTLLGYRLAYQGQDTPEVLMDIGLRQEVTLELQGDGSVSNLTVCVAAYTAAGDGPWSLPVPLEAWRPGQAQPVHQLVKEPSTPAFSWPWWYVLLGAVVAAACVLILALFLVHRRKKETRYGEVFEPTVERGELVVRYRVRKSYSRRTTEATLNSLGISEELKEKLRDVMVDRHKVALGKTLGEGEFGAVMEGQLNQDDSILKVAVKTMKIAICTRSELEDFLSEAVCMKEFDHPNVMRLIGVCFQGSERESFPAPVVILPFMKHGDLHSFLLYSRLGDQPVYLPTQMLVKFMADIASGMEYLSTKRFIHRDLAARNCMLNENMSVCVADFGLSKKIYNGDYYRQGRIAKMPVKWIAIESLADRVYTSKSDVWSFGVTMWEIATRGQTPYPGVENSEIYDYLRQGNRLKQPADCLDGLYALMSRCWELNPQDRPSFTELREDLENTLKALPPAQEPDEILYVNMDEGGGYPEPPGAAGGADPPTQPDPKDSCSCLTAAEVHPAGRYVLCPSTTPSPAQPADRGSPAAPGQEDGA
Procedure: H1299 is a non-small cell lung cancer cell.
H1299 cells were inoculated to a 6-well plate (containing 10% FBS 1640 medium, 5×10^5 cells per well) and adherently cultivated at 37° C., and 5% CO2 for 18 hrs. The cells were starved overnight, and then compound solutions with different concentrations were added. The compounds had final concentrations of 1.1, 3.3, 10 and 30 nM. […] There was a medium containing 1‰DMSO in the negative control well. The cells were incubated at 37° C., and 5% CO2 for 60 min, and then hGAS6 (R&D, final concentration: 200 ng/mL) was added to each well. The cells were further incubated for 60 min, and then the total protein of the cells was extracted for Western Blot experiment. IC50 values were calculated with GraphPad 5.0 software, and the inhibitory activities of the compounds on cell pAxl were detected.

[1] = PK assay in rat (IV and PO); format: in vivo; conditions: plasma, SD rats; for bioavailability: read-out: F % (absolute bioavailability); for clearance: read-out: Cl_obs iv (clearance rate) (converted); for Vd: read-out: Vz_obs iv (apparent volume of distribution); for Tmax: read-out: Tmax po (time of maximum observed plasma concentration)
Procedure: The experimental compounds were each dissolved in a mixture of 5% DMSO+20% (30% solutol)+75% saline to prepare compound solutions. The compound solutions were intragastrically administered to SD rats at a dosage of 5.0 mg/kg. The blood was sampled at time points of 15 min, 30 min, 1 hr, 2 hrs, 4 hrs, 6 hrs, 8 hrs and 24 hrs after administration.
The experimental compounds were each dissolved in a mixture of 5% DMSO+20% (30% solutol)+75% saline to prepare compound solutions. The compound solutions were intravenously administered to SD rats at a dosage of 1 mg/kg. The blood was sampled at time points of 5 min, 15 min, 30 min, 1 hr, 2 hrs, 4 hrs, 6 hrs, 8 hrs and 24 hrs after administration.
The animals were fixed, and the tails were heated under a water bath 10 min before each sampling time. About 100 μL of blood was collected via the tail vein, and the collected blood was placed in an anticoagulant tube containing EDTA-K2. The blood samples were centrifuged at 8,000 rpm for 6 min at 4° C. to obtain plasma samples, and the plasma samples were prepared within 30 min after the blood collection. The plasma samples were stored in a refrigerator at −80° C. before test.
The sample to be tested was taken out from the −80° C. refrigerator, naturally thawed at room temperature, and vortexed for 5 min. 20 μL of plasma sample was pipetted to a 1.5 mL centrifuge tube, and 200 μL of internal standard working solution (a solution of tolbutamide in methanol, 100 ng/mL) was added. The resulting mixture was thoroughly mixed, vortexed for 5 min, and centrifuged at 12,000 rpm for 5 min. 50 μL of supernatant was precisely pipetted to a 96-well plate with 150 μL of water per well, and the resulting mixture was vortexed for 5 min and then used for LC-MS/MS analysis.

[2] = IV 1 mg/kg, read-out: AUClast iv (area under plasma concentration-time curve, 0-24 h)
[3] = IV 1 mg/kg, read-out: tz1/2 iv (terminal half-life) (converted)
[4] = PO 5 mg/kg, read-out: AUClast po (area under plasma concentration-time curve, 0-24 h)
[5] = PO 5 mg/kg, read-out: tz1/2 po (terminal half-life) (converted)

Row | SMILES | IC50 (H1299 cell pAxl) [nM] | bioavailability ([1]; IV 1 mg/kg, PO 5 mg/kg) [%] | AUC(0-t) [1, 2] [ng·h/mL] | clearance ([1]; IV 1 mg/kg) [mL/min/kg] | Vd ([1]; IV 1 mg/kg) [L/kg] | half-life [1, 3] [h] | AUC(0-t) [1, 4] [ng·h/mL] | Tmax ([1]; PO 5 mg/kg) [h] | half-life [1, 5] [h]
1 | COc1cc2nccc(Oc3ccc(NC(=O)c4cc(CC5CCOCC5)cn(-c5ccc(F)cc5)c4=O)nc3)c2cc1OC [Compound 32, N-(5-((6,7-dimethoxyquinolin-4-yl)oxy)pyridin-2-yl)-1-(4-fluorophenyl)-2-oxo-5-((tetrahydro-2H-pyran-4-yl)methy 1)-1,2-dihydropyridin-3-carboxamide] | < 1.1 | – | – | – | – | – | – | – | –
2 | COc1cc2nccc(Oc3cnc(NC(=O)c4nn(C5CCOCC5)cc(-c5ccc(C)cc5)c4=O)nc3)c2cc1OC [Compound 18, N-(5-((6,7-dimethoxyquinolin-4-yl)oxy)pyrimidin-2-yl)-4-oxo-1-(tetrahydro-2H-pyran-4-yl)-5-(p-tolyl)-1,4-dihydropyridazin-3-carboxamide] | – | 34.6 | 1500 | 11 | 0.92 | 0.96 | 2600 | 0.5 | 1.17
3 | COc1cc2nccc(Oc3ccc(NC(=O)c4nn(C5CCOCC5)cc(-c5ccc(C)cc5)c4=O)cc3F)c2cc1OC [Compound 28] | 1.1 | – | – | – | – | – | – | – | –
4 | COc1cc2nccc(Oc3ccc(NC(=O)c4cn(C5CCOCC5)cc(-c5ccc(F)cc5)c4=O)nc3)c2cc1OC [Compound 27, N-(5-((6,7-dimethoxyquinolin-4-yl)oxy)pyridin-2-yl)-5-(4-fluorophenyl)-4-oxo-1-(tetrahydro-2H-pyran-4-yl)-1,4-dihydropyridin-3-carboxamide] | < 1.1 | – | – | – | – | – | – | – | –
5 | COc1cc2nccc(Oc3ccc(NC(=O)c4cc(-c5ccc(C)cc5)cn(CC5CCOCC5)c4=O)nc3)c2cc1OC [Compound 13, N-(5-((6,7-dimethoxyquinolin-4-yl)oxy)pyridin 2yl)-2-oxo-1-((tetrahydro-2H-pyran-4-yl)methyl)-5-(p-tolyl)-1,2-dihydropyridin-3-carboxamide] | – | 46.4 | 4220 | 3.33 | 1.65 | 9.08 | 9790 | 4 | 8.12
6 | COc1cc2nccc(Oc3cnc(NC(=O)c4cn(C5CCOCC5)cc(-c5ccc(F)cc5)c4=O)nc3)c2cc1OC [Compound 31, N-(5-((6,7-dimethoxyquinolin-4-yl)oxy)pyrimidin-2-yl)-5-(4-fluorophenyl)-4-oxo-1-(tetrahydro-2H-pyran-4-yl)-1,4-dihydropyridin-3-carboxamide] | < 3.3 | – | – | – | – | – | – | – | –
7 | COc1cc2nccc(Oc3cnc(NC(=O)c4nn(C5CCOCC5)cc(-c5ccc(F)cc5)c4=O)nc3)c2cc1OC [Compound 33, N-(5-((6,7-dimethoxyquinolin-4-yl)oxy)pyrimidin-2-yl)-5-(4-fluorophenyl)-4-oxo-1-(tetrahydro-2H-pyran-4-yl)-1,4-dihydropyridazin-3-carboxamide] | 3.3 | – | – | – | – | – | – | – | –
8 | COc1cc2nccc(Oc3ccc(NC(=O)c4cn(C5CCOCC5)cc(-c5ccc(C)cc5)c4=O)nc3)c2cc1OC [Compound 19, N-(5-((6,7-dimethoxyquinolin-4-yl)oxy)pyridin-2-yl)-4-oxo-1-(tetrahydro-2H-pyran-4-yl)-5-(p-tolyl)-1,4-dihydropyridin-3-carboxamide] | – | 40.5 | 2440 | 6.17 | 1.3 | 2.44 | 5450 | 1 | 2.56

Second part, the compound after the results:

Row | IC50 (H1299 cell pAxl) [nM] | bioavailability ([1]; IV 1 mg/kg, PO 5 mg/kg) [%] | AUC(0-t) [1, 2] [ng·h/mL] | clearance ([1]; IV 1 mg/kg) [mL/min/kg] | Vd ([1]; IV 1 mg/kg) [L/kg] | half-life [1, 3] [h] | AUC(0-t) [1, 4] [ng·h/mL] | Tmax ([1]; PO 5 mg/kg) [h] | half-life [1, 5] [h] | SMILES
9 | – | 70.7 | 4860 | 3.5 | 1.18 | 3.98 | 17200 | 6 | 3.5 | COc1cc2nccc(Oc3ccc(NC(=O)c4nn(C5CCOCC5)cc(-c5ccc(C)cc5)c4=O)nc3)c2cc1OC [Compound 17, N-(5-((6,7-dimethoxyquinolin-4-yl)oxy)pyridin-2-yl)-4-oxo-1-(tetrahydro-2H-pyran-4-yl)-5-(p-tolyl)-1,4-dihydropyridazin-3-carboxamide]
10 | < 1.1 | 65.7 | 8440 | 1.83 | 0.84 | 5.18 | 28000 | 6 | 4.56 | COc1cc2nccc(Oc3ccc(NC(=O)c4nn(C5CCOCC5)cc(-c5ccc(F)cc5)c4=O)nc3)c2cc1OC [Compound 34, N-(5-((6,7-dimethoxyquinolin-4-yl)oxy)pyridin-2-yl)-5-(4-fluorophenyl)-4-oxo-1-(tetrahydro-2H-pyran-4-yl)-1,4-dihydropyridazin-3-carboxamide]
11 | > 10 | – | – | – | – | – | – | – | – | Cc1ccc(-c2cn(C3CCOCC3)nc(C(=O)Nc3ccc(Oc4ccnc5cc6c(cc45)OCCO6)cn3)c2=O)cc1 [Compound 30, N-(5-((2,3-dihydro-[1,4]dioxino[2,3-g]quinolin-9-yl)oxy)pyridin-2-yl)-4-oxo-1-(tetrahydro-2H-pyran-4-yl)-5-(p-tolyl)-1,4-dihydropyridazin-3-carboxamide]
12 | 30 | – | – | – | – | – | – | – | – | Cc1ccc(-c2cn(C3CCOCC3)nc(C(=O)Nc3ccc(Oc4ccnc5cc6c(cc45)OCO6)cn3)c2=O)cc1 [Compound 29, N-(5-([1,3]dioxolo[4,5-g]quinolin-8-yloxy)pyridin-2-yl)-4-oxo-1-(tetrahydro-2H-pyran-4-yl)-5-(p-tolyl)-1,4-dihydropyridazin-3-carboxamide]
13 | – | 31.3 | 4070 | 4 | 1.19 | 3.47 | 6620 | 4 | 3.14 | COc1cc2nccc(Oc3ccc(NC(=O)c4nn(CC5CCOCC5)cc(-c5ccc(C)cc5)c4=O)nc3)c2cc1OC [Compound 2, N-(5-((6,7-dimethoxyquinolin-4-yl)oxy)pyridin-2-yl)-4-oxo-1-((tetrahydro-2H-pyran-4-yl)methyl)-5-(p-tolyl)-1,4-dihydropyridazin-3-carboxamide]
